Results published in patent US12622917B2, “High-activity Wnt pathway inhibitor compound” (ADLAI NORTYE BIOPHARMA CO., LTD., priority 2020, dated 2026).
pIC50: −log10 of the molar value.

Columns and labels:
[1] = system: Colo205-LUC-TCF/LEF M1 reporter cell line (Wnt pathway); assay: Colo205-LUC-TCF/LEF M1 reporter gene (luciferase) inhibition; type: cell-based; settings: 4 hours incubation, luciferase readout
Procedure, shortened: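 Luminescent readout of TCF/LEF-regulated luciferase after a 4 h, 37° C compound exposure in a stable Colo205 reporter clone (10,000 cells/well). Serial 3-fold dilutions started at 20 uM; IC50 derived using DMSO-treated cells and no-cell wells as controls.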

RKO = assay: Proliferation inhibition, non-Wnt mutant control cell line RKO; type: cell-based; settings: Homo sapiens, Wnt-independent control cell line, 96 hours, read-out: Antiproliferative IC50 RKO
Procedure, shortened: (§1)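 Cells were seeded at 1000 per well, incubated 20-24 h at 37° C in 5% CO2, then exposed to 3-fold serially diluted compound (top final concentration 20 uM) for 96 hours. Viability was read by a Promega cell viability assay; IC50 values were derived relative to DMSO-only and cell-free control wells.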

DU4475 = assay: Proliferation inhibition, Wnt mutant cell line DU4475; type: cell-based; settings: Homo sapiens, DU-4475; DU4475, Wnt pathway-dependent, 96 hours; read-out: Antiproliferative IC50 DU4475
Procedure, shortened: as §1

Colo205 = assay: Proliferation inhibition, Wnt mutant cell line Colo205; type: cell-based; settings: Homo sapiens, COLO 205; Colo205, Wnt pathway-dependent, 96 hours; read-out: Antiproliferative IC50 Colo205
Procedure, shortened: as §1

Hela = assay: Proliferation inhibition, non-Wnt mutant control cell line Hela; type: cell-based; settings: Homo sapiens, Wnt-independent control cell line, 96 hours, read-out: Antiproliferative IC50 Hela
Text: The cell lines used in the experiment are Colo205 and DU4475 cell lines whose Wnt pathway is continuously activated and whose proliferation is Wnt pathway-dependent; while the BELA and RKO cell lines, whose Wnt pathway is not activated under normal circumstances and the proliferation is independent of Wnt pathway, as control cell lines. It is Judged that the inhibitory effect of the compound of the present invention on Wnt-dependent proliferation is not caused by other non-specific toxicity.
Treat the Colo205, Du4475, HELA and RKO cell lines cultured in their respective mediums in the logarithmic growth phase, collect the cells and prepare a uniform cell suspension of known concentration, and then add it to the 96-well cell culture plate Cell suspension, so that each well contains 1000 cells. Put it into a 5% CO2 incubator and incubate at 37° C. for 20-24 h. On the second day, the fully dissolved, 3-fold serially diluted compound was added to each cell culture well, so that the final maximum concentration in the cell culture well was 20 uM, and the culture was continued for 96 hours. In this test, Promega's cell viability detection test is used for detection. The more the cells proliferate, the stronger the final signal intensity will be. The detection instrument is SpectraMax, full wavelength mode. The wells only added with DMSO were used as positive control wells, and the wells that were not inoculated with cells were used as negative control wells. […] The IC50 value of cell proliferation inhibition was used to evaluate the inhibitory effect of the compound on the Wnt pathway and the toxic effect on normal cells (Table 2).

HepG2 = assay: Proliferation inhibition, HepG2 cell line; type: cell-based; settings: Homo sapiens; HepG2 cells, 96 hours culture, cell viability detection; read-out: Antiproliferative IC50 HepG2
Procedure, shortened: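 Wnt-dependent proliferation in HepG2 and NCI-H929 cells, seeded at 4000 cells/well and pre-incubated 20-24 h at 37 °C. Cells were then exposed for 96 h to 3-fold serial dilutions (top final concentration 20 uM), and viability was read by signal intensity. IC50 was referenced to DMSO-only wells and cell-free wells.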

NCI-H929 = assay: Proliferation inhibition, NCI-H929 cell line; type: cell-based, human; settings: Homo sapiens; NCI-H929 cells, 96 hours culture, cell viability detection; read-out: Antiproliferative IC50 NCI-H929
Text: The cell lines used in the test are NCI-H929 and HepG2 cell lines whose Wnt pathway is continuously activated and whose proliferation is Wnt pathway-dependent; the inhibitory effect of the compound of the present invention on Wnt-dependent proliferation is judged.
Treat the NCI-H929 and HepG2 cell lines cultured in their respective mediums in the logarithmic growth phase, collect the cells and prepare a uniform cell suspension of known concentration, and then add the cell suspension to the 96-well cell culture plate solution so that each well contains 4000 cells. Put it into a […] incubator and incubate at 37° C. for 20-24 h. On the second day, the fully dissolved, 3-fold serially diluted compound was added to each cell culture well, so that the final maximum concentration in the cell culture well was 20 uM, and the culture was continued for 96 hours. In this test, Promega's cell viability detection test is used for detection. The more the cells proliferate, the stronger the final signal intensity will be. The detection instrument is SpectraMax, full wavelength mode. The wells only added with DMSO were used as positive control wells, and the wells that were not inoculated with cells were used as negative control wells. […] The IC50 value of cell proliferation inhibition was used to evaluate the inhibitory effect of the compound on the Wnt pathway and the toxic effect on normal cells (Table 3).

SMILES	pIC50 [1]	pIC50 (Colo205)	pIC50 (Hela)	pIC50 (HepG2)	pIC50 (NCI-H929)	pIC50 (RKO)	pIC50 (DU4475)
C[C@H]1Cn2ccc3nc(NCc4cnn(Cc5ccc(F)cc5)c4)nc(c32)N1C [61 (W2)]	8.70	8.26	5.38	–	–	5.46	7.93
C[C@H]1Cn2ccc3nc(NCc4cnn(Cc5ccc(F)cc5)c4)nc(c32)N1CCO [62 (W13)]	7.85	7.88	5.14	–	–	5.18	7.87
COC[C@H]1Cn2ccc3nc(NCc4ccc(C(F)(F)F)nc4)nc(c32)N1C [86 (W135)]	7.42	7.10	< 5.00	–	–	< 5.00	–
COC[C@H]1[C@@H](C)n2ccc3nc(NCc4cnn(Cc5ccc(C(F)(F)F)nc5)c4)nc(c32)N1C [88 (W140)]	7.66	–	< 5.00	–	–	< 5.00	–
C[C@H]1C(=O)N2CCCc3nc(NCc4ccc(Cn5ccc(C(F)(F)F)n5)nc4)nc(c32)N1C [92 (W232)]	–	7.09	< 5.00	–	–	< 5.00	7.10
C[C@H]1C(=O)N2CCCc3nc(NCc4cnn(CCCC(F)(F)F)c4)nc(c32)N1C [93 (W223)]	–	7.05	< 5.00	–	–	< 5.00	7.10
CN1c2nc(NCc3ccc(Oc4ccc(C(F)(F)F)nc4)nc3)nc3c2N(CCC3)C(=O)C1(C)C [176 (W296)]	7.70	8.25	–	7.57	7.40	< 5.00	8.42
CN1c2nc(NCc3ccc(Oc4ccc(C(F)(F)F)nc4)nc3)nc3c2N(CCC3)C(=O)[C@@H]1CC(F)(F)F [190 (W317)]	7.96	8.10	–	8.68	8.19	< 5.00	> 9.30
[2H]C([2H])([2H])N1c2nc(NCc3ccc(Oc4ccc(C(F)(F)F)nc4)nc3)nc3c2N(CCC3)C(=O)[C@@H]1CC(F)(F)F [196 (W344)]	8.15	8.85	–	8.92	7.27	< 5.00	> 9.30

More lines, main results first:

pIC50 [1]	pIC50 (Colo205)	pIC50 (Hela)	pIC50 (HepG2)	pIC50 (NCI-H929)	SMILES	pIC50 (RKO)	pIC50 (DU4475)
7.92	8.22	–	8.17	7.55	CN1c2nc(NCc3ccc(Oc4cnc(C(F)(F)F)nc4)nc3)nc3c2N(CCC3)C(=O)[C@@H]1C1CC1 [167 (W289)]	< 5.00	9.22
7.59	7.54	–	7.46	7.17	CCN1c2nc(NCc3ccc(Oc4cnc(C(F)(F)F)nc4)nc3)nc3c2N(CCC3)C(=O)[C@@H]1C [168 (W298)]	< 5.00	7.96
7.70	7.76	–	7.59	7.05	CN1c2nc(NCc3ccc(Oc4cnc(C(F)(F)F)nc4)nc3)nc3c2N(CCC3)C(=O)[C@@H]1c1ccccc1 [172 (W305)]	< 5.00	8.24
7.68	7.79	–	7.60	7.25	CN1c2nc(NCc3ccc(Oc4cnc(C(F)(F)F)nc4)nc3)nc3c2N(CCC3)C(=O)C1(C)C [177 (W297)]	< 5.00	8.92
7.41	7.72	–	7.64	7.22	[2H]C([2H])([2H])N1c2nc(NCc3ccc(Oc4cnc(C(F)(F)F)nc4)nc3)nc3c2N(CCC3)C(=O)[C@@H]1COC [178 (W333)]	< 5.00	7.86
8.40	8.85	–	8.92	7.62	[2H]C([2H])([2H])N1c2nc(NCc3ccc(Oc4cnc(C(F)(F)F)nc4)nc3)nc3c2N(CCC3)C(=O)[C@@H]1CC(F)(F)F [193 (W342)]	< 5.00	> 9.30
8.05	8.16	–	8.70	7.55	CN1c2nc(NCc3ccc(Oc4cnc(C(F)(F)F)nc4)nc3)nc3c2N(CCC3)C(=O)[C@@H]1CC(F)(F)F [199 (W319)]	< 5.00	> 9.30
